Literature values, collected in US20040265344A1, “Aloe suppositories” (priority 2003, published 2004).

How the values were obtained:
[1] = tested on: rat colonic mucosa sodium and potassium adenosine triphosphatase (ATP-ase); details: in vitro

Row | Structure (SMILES) | effect on rat colonic mucosa sodium and potassium ATP-ase [1] | effect on the rise in residual fluid volume (residual fluid volume)
1 | O=C1c2c(O)cccc2Cc2cc(CO)cc(O)c21 [Aloe-emodin-9-anthrone] | inhibited | –
2 | CN(C)C(=O)C(CCN1CCC(O)(c2ccc(Cl)cc2)CC1)(c1ccccc1)c1ccccc1 [loperamide] | – | did not completely inhibit
